Reference: PubChem BioAssay (NCI)
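Values below derive from 48-hour exposures of cells grown in 96-well plates, with endpoints linearly interpolated between the two concentrations bracketing the appropriate inhibition level. At the GI50, growth is halved. The concentration for full growth arrest is given as TGI.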

Experiments:
Test in all cases: NCI anticancer screen, dose series, 48 h
EKVX NSCLC = test system: EKVX NSCLC
K-562 leukemia = test system: K-562 leukemia
KM12 colon = test system: KM12 colon
LXFL 529 NSCLC = test system: LXFL 529 NSCLC
MALME-3M melanoma = test system: MALME-3M melanoma
SF-295 CNS = test system: SF-295 CNS
DLD-1 colon = test system: DLD-1 colon
DU-145 prostate = test system: DU-145 prostate
MCF7 breast = test system: MCF7 breast
T-47D breast = test system: T-47D breast

| SMILES | TGI (EKVX NSCLC) [µM] | TGI (K-562 leukemia) [µM] | TGI (KM12 colon) [µM] | TGI (LXFL 529 NSCLC) [µM] | TGI (MALME-3M melanoma) [µM] | TGI (SF-295 CNS) [µM] | GI50 (DLD-1 colon) [µM] | TGI (DLD-1 colon) [µM] | GI50 (K-562 leukemia) [µM] | GI50 (KM12 colon) [µM] | GI50 (LXFL 529 NSCLC) [µM] | GI50 (MALME-3M melanoma) [µM] | GI50 (SF-295 CNS) [µM] | GI50 (DU-145 prostate) [µM] | TGI (DU-145 prostate) [µM] | GI50 (EKVX NSCLC) [µM] | GI50 (MCF7 breast) [µM] | TGI (MCF7 breast) [µM] | GI50 (T-47D breast) [µM] | TGI (T-47D breast) [µM] |
| --- | --- | --- | --- | --- | --- | --- | --- | --- | --- | --- | --- | --- | --- | --- | --- | --- | --- | --- | --- | --- |
| Cc1ccc(NC(=O)C2C(=O)N(c3ccc(C)cc3)C(=O)/C2=N\NC(N)=S)cc1 (stereo unspecified) | > 100 | > 100 | > 100 | > 100 | > 100 | > 100 |  |  |  |  |  |  |  |  |  |  |  |  |  |  |
| CC(=O)[O][Ga]([Cl])[O]C(C)=O |  | > 100 | > 100 | > 100 | > 100 | > 100 | > 100 | > 100 | > 100 | > 100 | > 100 | > 100 | > 100 |  |  |  |  |  |  |  |
| Cc1[nH]c2ccccc2c1C(=O)CC1(O)C(=O)Nc2ccccc21 (stereo unspecified) | > 100 | > 100 | > 100 | > 100 |  | > 100 |  | > 100 |  |  |  |  |  |  |  |  |  |  |  |  |
| C#CCOc1cccc(-c2ncnc3cc(NC(=O)CCl)ccc23)c1 | 7.64 |  | 3.2 |  | 3.59 | 9.25 |  |  | 0.0612 | 0.622 |  | 1.28 | 2.44 | 1.16 | 2.47 | 2.31 | 0.0764 | 1.75 | 1.69 | 5.02 |
| COc1cc(C#Cc2ccc(=O)oc2C#Cc2ccccc2)cc(OC)c1OC | 13.4 | > 40.4 | 44.8 |  | 7.21 | 38.9 |  |  | 3.67 | 15.1 |  | 2.99 | 18.3 | 3.12 | 10.7 | 5.32 | 1.99 | 4.86 | 2.27 | 6.22 |
| O=C(O)CCCCCCC[C@H]1S[C@H]1CCCCCCO | > 100 | > 100 | > 100 |  | > 100 | > 100 |  | > 100 |  |  |  |  |  |  |  |  |  |  |  |  |
| COc1ccc(C(=O)/C=C/c2ccc(C)cc2)cc1OC | 42.9 | 50.2 | 19 |  | 36 | 28.4 |  |  | 8.31 | 5.68 |  | 15.9 | 12.1 | 3.2 | 14.4 | 18.4 | 3.09 | 15.1 | 3.05 | 15.8 |
| Nc1ccccc1C(=O)CC1OC(=O)c2ccccc21 (stereo unspecified) | > 100 | > 100 | > 100 |  | > 100 | > 100 |  |  |  |  |  |  |  |  | > 100 |  |  | > 100 |  | > 100 |
| CNC(=O)c1ccc(N2CCN(Cc3ccc4nc(C)c(=O)[nH]c4c3F)CC2)c(F)n1 | > 100 | > 100 | > 100 |  | > 100 | > 100 |  |  | > 100 | > 100 |  | > 100 | 48.5 | > 100 | > 100 | 81.2 | 65.9 | > 100 | 53.5 | > 100 |
